Results from US11339122B2, “hTRPV1 chemical agents” (UNIVERSITY OF PITTSBURGH—OF THE COMMONWEALTH SYSTEM OF …, priority 2015, dated 2022).
Where “and” joins values, the source holds several entries; their conditions need not be identical. Equal values may be shown once.

Columns and labels:
[1] = biological target: T1, hTRPV1 (Homo sapiens (Human), UniProt Q8NER1); assay: Ca2+ uptake assay, capsaicin antagonism (CHO-hTRPV1 cells); assay type: cell-based; conditions: for % inhibition at 30 μM (capsaicin antagonism) / inhibition at 30 µM: compound at 30 μM, capsaicin 30 nM; for Ki: capsaicin (30 nM) stimulated Ca2+ uptake
Description: (§1) Tet-On induced CHO-hTRPV1 cells were cultured in maintaining medium (F12 supplemented with 10% TET-free FBS [Atlanta Biologicals, GA], 25 mM HEPES, 10 μg/ml blasticidin and 250 μg/ml geneticin (all from Invitrogen Life Sciences; Grand Island, N.Y.). TRPV1 protein was induced with induction medium (F12 supplemented with 10% FBS, 25 mM HEPES, and 1 μg/ml tetracycline) as described below for ligand binding and Ca uptake measurements.
(§2) CHO-hTRPV1 cells were plated in 24-well plates, reaching 40 to 60% confluence in maintaining medium after 24 hours. The cells were washed once with Dulbecco's phosphate buffered saline (DPBS; Invitrogen, Grand Island, N.Y.) to remove antibiotics, and fresh medium with tetracycline (inducing medium) was added to induce TRPV1 expression. Experiments were done approximately 24 hours after induction. The cells were at least 90% confluent at the time of the assays.
(§3) For agonist Ca^2+ uptake assays, the inducing medium was aspirated and replaced by DMEM (supplemented with bovine serum albumin (0.25 mg/mL), […], and 100 μl of increasing concentrations of the non-radioactive ligand for a total volume of 400 μl/well. The cells were incubated for 5 min in a water bath at 37° C. For uptake measurements by a full agonist, a saturating concentration of capsaicin (3000 nM) was used as a positive control. Immediately after incubation, the assay medium was aspirated and the cells were washed twice with ice cold DPBS (no Ca^2+ & Mg^2+).The cells were then lysed in radioimmunoprecipitation assay buffer (50 mM Tris-Cl pH 7.5, 150 mM NaCl, 1% Triton X-100, 1% SDS, and 1% sodium deoxycholate; 400 μL/well) for at least 40 min on a shaker. Aliquots (300 μL) of the cell lysates were counted in a liquid scintillation counter. Background uptake was determined in the absence of either compound or capsaicin. For the antagonism assays, capsaicin (30 nM) was included along with increasing concentrations of the ligand being evaluated. The cells were incubated for 5 min in a water bath at 37° C. Immediately after incubation, the assay medium was aspirated and the cells were washed twice with ice-cold DPBS (no Ca^2+ & Mg^2+). The cells were then lysed in radioimmunoprecipitation assay buffer for at least 40 min on a shaker. Aliquots of the cell lysate were counted in a liquid scintillation counter. Triplicate points at each concentration of ligand were determined in each experiment. Compounds were initially screened at a concentration of 30 µM. Compounds showing greater than 10% agonism/antagonism were evaluated in triplicate experiments. As indicated, full dose response curves for compounds showing activity were performed at least three times. Data was analyzed using GraphPad Prism.

[2] = biological target: T1, hTRPV1; assay: [3H]RTX competition binding assay (membranes of induced CHO-hTRPV1 cells); conditions: approximately 2 nM [3H]RTX, 37° C., 60 minutes; read-out: Ki for inhibition of [3H]RTX binding to hTRPV1
Description: as §1
Binding studies with [^3H]RTX were carried out as follows. The binding assay mixtures were prepared in 1.5 ml centrifuge tubes and consisted of a fixed concentration (approximately 2 nM) of [^3H]RTX (37 Ci/mmol specific activity, PerkinElmer Life Sciences), various concentrations of competing ligands, and […] of membranes from induced CHO-hTRPV1 expressing cells (approximately 1-3×10^6 cells) in Dulbecco's phosphate buffered saline (DPBS, with Ca^2+ & Mg^2+) for a total volume of 350 μl. The assay mix contained bovine serum albumin at a final concentration of 0.25 mg/ml (Cohn fraction V; Sigma-Aldrich, St. Louis, Mo.). In each set of experiments, nonspecific binding were determined in the presence of 200 nM non-radioactive RTX. The binding reaction was initiated by placing the assay mixture in a 37° C. shaking water bath for 60 minutes ([…]). The assay mixture was then chilled on ice for 2-3 min before adding 100 μl of α1-acid glycoprotein (2 mg/ml; Sigma-Aldrich) and mixed thoroughly. The tubes were kept on ice for an additional 10 min. The bound and free ligands were then separated by centrifugation (12,200 rpm for 15 minutes) in a Beckman Coulter centrifuge Allegra 21R. 200 μl of supernatant was collected for determination of free ligand. The remainder was removed by aspiration. The bottom portion of the tubes containing the membranes was cut off and bound radioactivity determined. Radioactivity was measured by scintillation counting. Data were analyzed using GraphPad Prism. Ki values for compounds were determined by competition for binding of [^3H]RTX to the hTRPV1 and represent the mean SEM of triplicate binding curves. […]

[3] = biological target: T1, hTRPV1; assay: Agonist Ca2+ uptake assay (CHO-hTRPV1 cells); assay type: cell-based
Description: as §1, §2
as §3, with “The cells were incubated for 5 min in a water bath at 37° C. Immediately after incubation, the assay medium was aspirated and the cells were washed twice with ice-cold DPBS (no Ca^2+ & Mg^2+). The cells were then lysed in radioimmunoprecipitation assay buffer for at least 40 min on a shaker.” left out, “Triplicate points at each concentration of ligand were determined in each experiment. Compounds were initially screened at a concentration of 30 µM. Compounds showing greater than 10% agonism/antagonism were evaluated in triplicate experiments. As indicated, full dose response curves for compounds showing activity were performed at least three times.” left out

[4] = biological target: cannabinoid receptor 2 (CB2) (Homo sapiens (Human), UniProt P34972); assay: Binding at the cannabinoid receptor 2 (CB2)
cannabinoid receptor 2 (CB2), sequence (P34972 whole entry, species assumed): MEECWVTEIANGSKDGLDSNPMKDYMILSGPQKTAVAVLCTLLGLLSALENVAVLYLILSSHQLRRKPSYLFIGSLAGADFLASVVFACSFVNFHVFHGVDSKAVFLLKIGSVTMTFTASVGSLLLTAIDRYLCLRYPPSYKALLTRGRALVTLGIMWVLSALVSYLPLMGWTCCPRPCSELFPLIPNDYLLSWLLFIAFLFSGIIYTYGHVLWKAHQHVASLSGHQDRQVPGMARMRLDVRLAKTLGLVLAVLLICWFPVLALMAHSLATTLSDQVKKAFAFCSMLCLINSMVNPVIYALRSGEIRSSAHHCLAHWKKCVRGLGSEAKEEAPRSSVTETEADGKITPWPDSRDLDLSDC

T1 sequence (Q8NER1 whole entry): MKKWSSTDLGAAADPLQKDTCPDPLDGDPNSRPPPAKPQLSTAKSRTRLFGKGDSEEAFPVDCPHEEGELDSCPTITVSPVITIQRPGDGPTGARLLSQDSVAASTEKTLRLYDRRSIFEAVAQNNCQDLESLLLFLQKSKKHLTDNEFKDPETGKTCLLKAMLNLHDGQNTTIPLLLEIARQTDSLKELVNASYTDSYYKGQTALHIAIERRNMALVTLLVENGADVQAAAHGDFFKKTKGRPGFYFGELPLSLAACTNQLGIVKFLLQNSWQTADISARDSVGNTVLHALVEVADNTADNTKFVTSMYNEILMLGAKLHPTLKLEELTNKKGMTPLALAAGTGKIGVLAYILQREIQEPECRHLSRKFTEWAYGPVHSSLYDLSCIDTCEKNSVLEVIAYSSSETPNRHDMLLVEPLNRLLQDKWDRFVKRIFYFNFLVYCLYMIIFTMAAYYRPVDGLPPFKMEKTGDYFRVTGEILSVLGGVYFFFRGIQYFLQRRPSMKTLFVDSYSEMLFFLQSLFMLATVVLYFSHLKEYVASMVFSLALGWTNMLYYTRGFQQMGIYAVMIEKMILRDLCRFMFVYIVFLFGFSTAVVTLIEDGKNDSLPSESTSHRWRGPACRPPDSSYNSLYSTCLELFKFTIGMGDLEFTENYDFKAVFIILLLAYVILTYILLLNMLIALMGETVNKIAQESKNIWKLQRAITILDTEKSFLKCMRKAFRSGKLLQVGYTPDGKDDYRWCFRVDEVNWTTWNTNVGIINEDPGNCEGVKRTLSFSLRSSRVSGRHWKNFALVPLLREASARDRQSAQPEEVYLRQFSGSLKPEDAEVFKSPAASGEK

Compound | inhibition at 30 µM [1] [%] | Ki [1] | further results
O=C(Nc1cccc(C(F)(F)F)c1)Nc1ccc([N+](=O)[O-])cc1Cl [Compound 1] | 98.2 ± 2.7 | – | % inhibition at 30 μM (capsaicin antagonism) [1]: 92.2 ± 2.7%; Ki [2]: 1110 ± 210 nM
Cc1cc([N+](=O)[O-])ccc1NC(=O)Nc1cccc(F)c1 [Compound 2] | 79.9 ± 4.9 | 4.5 µM and 4.52 µM | Ki ([1]; listed as compound 2): 4.5 ± 0.88 µM; Ki [2]: 5200 ± 320 nM
NC(=O)c1ccccc1NC(=O)Nc1ccc(F)cc1 [Compound 3] | 32 ± 8 | – | –
CCOC(=O)c1ccc(NC(=O)Nc2ccc(F)cc2)cc1 [Compound 5] | – | – | functional character at hTRPV1 [3]: partial agonist; EC50 ([3]; Ca2+ uptake, CHO-hTRPV1 cells, read-out: EC50 for capsaicin agonism): 2840 ± 210 nM; Emax ([3]; relative to 3000 nM capsaicin, read-out: maximal stimulation, % of that by 3000 nM capsaicin (% agonism)): 55.7 ± 7.8%
COc1ccc(C)cc1NC(=O)Nc1ccccc1F [Compound 8] | 28 ± 6 | – | –
Cc1cc(O)c(C(C)C)cc1NC(=O)Nc1ccc(Br)cc1 [Compound 9] | 27 ± 14 | – | –
CSc1ccc(NC(=O)Nc2ccc(Cl)cc2[N+](=O)[O-])cc1 [Compound 11] | – | 3.7 ± 1.7 µM | % inhibition at 30 μM (capsaicin antagonism) [1]: 61 ± 18%
O=C1C(=O)c2cc(Br)cc([N+](=O)[O-])c2-c2ccc(Br)cc21 [Compound 17] | – | 2.15 ± 0.72 µM | % inhibition at 30 μM (capsaicin antagonism) [1]: 66 ± 11%
O=C(Nc1cc(C(F)(F)F)ccc1Cl)c1ccccc1F [Compound 18] | 51.8 | 7 ± 2 µM | –
CCN(CC)c1ccc(CNS(=O)(=O)c2ccc(NC(C)=O)cc2)cc1 [XIE1-203Y, N-(4-(N-(4-(diethylamino)benzyl)sulfamoyl)phenyl)acetamide] | 12.7 ± 1 | – | –

Second part, led by results:

inhibition at 30 µM [1] [%] | Ki [1] | Compound | further results
64.5 | 11.7 ± 1.3 µM | CCOC(=O)c1ccc(NC(=O)Nc2cccc(Cl)c2)cc1 [Compound 4] | –
34 ± 7 | – | CCOC(=O)c1ccc(NC(=O)Nc2cc(Cl)ccc2C)cc1 [Compound 6] | –
33 ± 7 | – | COc1ccc(Cl)cc1NC(=O)Nc1ccc(CCO)cc1 [Compound 7] | –
72 | 3.7 ± 1 µM | Cc1ccc(Cl)cc1NC(=O)Nc1cccc2c(O)cccc12 [Compound 13] | –
– | 0.47 ± 0.18 µM | O=C(Nc1ccc(F)c([N+](=O)[O-])c1)Nc1cccc2c(O)cccc12 [Compound 14] | % inhibition at 30 μM (capsaicin antagonism) [1]: 100 ± 0%; Ki [2]: 650 ± 260 nM; Ki [4]: 15.9 µM
99.6 | 0.49 ± 0.14 µM | Cc1c(Cl)cccc1NC(=O)Nc1cccc2c(O)cccc12 [Compound 15] | Ki [4]: 1.39 µM
100 | 0.56 ± 0.16 µM | Cc1c(Cl)cccc1NC(=O)Nc1cccc(O)c1 [Compound 16] | Ki [4]: 12.2 µM
